# Earlier results as cited in patent US12502363B2, “Ketamine and ketamine/nap for treatment of ADNP syndrome and related neurological conditions” (ADNP Kids Research Foundation, priority 2019, dated 2025).
# What was measured:
# [1] = test system: ADNP gene expression in the somatosensory cortex; conditions: somatosensory cortex of post-natal day 7 rats, anesthetic dose of ketamine (20 mg/kg), microarray
# [2] = test system: activated caspase-3 (AC3); conditions: anesthetic doses of ketamine
# [3] = test system: ADNP; conditions: 5 mg/kg ketamine, healthy rats without ADNP mutations
smiles,measurement,setting,value
"CNC1(c2ccccc2Cl)CCCCC1=O (stereo not drawn) [ketamine, Ketamine]",ADNP gene expression,[1],increases significantly
same,levels of pro-apoptotic enzyme activated caspase-3 (AC3),[2],increased levels
same,ADNP in the Fasciola Cinereum (FC) and SSC layers II/III,[3],increased ADNP
